Results published in US20160303205A1, “Combination Therapies for Lysosomal Storage Diseases” (Washington University, priority 2015, published 2016).
Read-outs that look alike come from different tables or passages of the source.

Key:
Twitcher mice [1] = experiment: Lifespan of Twitcher mice (Kaplan-Meier survival); type: in vivo, mouse
Text: Treated and untreated Twitcher mice as well as untreated controls were used in all experiments. […] The experimental and control animals were randomly assigned to groups for analysis at pre-determined time points (n=3-6 animals per time point) or for life span and behavioral analyses (n=10-14 animals per group). The number of animals per group was based on previous experience with this model and the specific assays as well as power calculations. Quantitative biochemical analyses (GALC activity, psychosine measurements, cytokine/chemokine levels) were performed in duplicate on tissues from 3-6 animals, depending on the assay. Semi-quantitative histomorphometry was performed on at least 3 representative sections per animal from at least 3 animals per group. The photography settings were kept constant for all images. Analysis of variance (ANOVA) was used for group comparisons with Bonferroni correction for pair-wise comparisons. Student's t-test was used to compare the means of two groups. Significant differences in life span were determined by log-rank test. […]
Animals were housed at Washington University School of Medicine. […] Genotypes were determined on postnatal day 1 by PCR as previously described (Sakai et al. 1996 J Neurochem 66:1118-1124; Lin et al., 2005 Molecular Therapy 12:422-430.). […]
Lifespan was recorded as the age of the animal on the date of death or sacrifice. […]

Twitcher mice [2] = settings: Twitcher mouse; literature (LeVine 2000; Biswas and LeVine 2002); cited from earlier work

N[C@H]1CONC1=O [L-cycloserine]
median lifespan (Twitcher mice [1]): ~57 days | median lifespan (Twitcher mice [1]; untreated Twitcher 39.5 d): 57 days | lifespan (Twitcher mice [2]): ~57 days
